The results in this text go back to ChEMBL document CHEMBL6153150, “Design, Synthesis, and Biological Evaluation of Chiral-Proline Derivatives as Novel HSP90 Inhibitors” (ACS Med Chem Lett, 2025).

Molecules are shown by their SMILES. The source made the active and inactive calls. The rule behind the calls is not given here.

Data set [1] concerns the target T1, Heat shock protein HSP90 (Homo sapiens, UniProt P07900+P08238). Briefly: Binding affinity to Hsp90 (unknown origin) assessed as dissociation constant incubated for 30 mins by fluorescence spectrophotometric analysis. Type of data set: protein assay.
Data set [2] addresses T1, Heat shock protein HSP90. Briefly: Inhibition of Hsp90 (unknown origin) ATPase activity assessed as decrease in absorbance using PEP as substrate in presence of ATP and NADH by absorbance based assay. The class given is protein assay.
Data set [3] has as its system HCT-116. Kind of data set: Antiproliferative activity against human HCT-116 cells assessed as cell viability inhibition rate incubated for 72 hr by MTT assay. The settings on record: HCT-116, 72 h. The class given is functional, cell-based.
Data set [4] relates to MCF7. Kind of data set: Antiproliferative activity against human MCF7 cells assessed as cell viability inhibition rate incubated for 72 hr by MTT assay. Type of data set: functional, cell-based. The settings on record: MCF7, 72 h.
For data set [5], the system named is SK-BR-3. Briefly: Antiproliferative activity against human SK-BR-3 cells assessed as cell viability inhibition rate incubated for 72 hr by MTT assay. The class given is functional, cell-based. The settings on record: SK-BR-3, 72 h.
Data set [6] relates to K562. Kind of data set: Antiproliferative activity against human K562 cells assessed as cell viability inhibition rate incubated for 72 hr by MTT assay. Type of data set: functional, cell-based. The settings on record: K562, 72 h.
For data set [7], the system named is A549. Briefly: Antiproliferative activity against human A549 cells assessed as cell viability inhibition rate incubated for 72 hr by MTT assay. The conditions noted are these: A549, 72 h. The class given is functional, cell-based.
In data set [8] the target is Endoplasmin (Homo sapiens, UniProt P14625). Briefly: Inhibition of GRP94 (unknown origin) incubated for 12 to 16 hrs by FP competition assay.
Sequence of Endoplasmin (P14625 whole entry): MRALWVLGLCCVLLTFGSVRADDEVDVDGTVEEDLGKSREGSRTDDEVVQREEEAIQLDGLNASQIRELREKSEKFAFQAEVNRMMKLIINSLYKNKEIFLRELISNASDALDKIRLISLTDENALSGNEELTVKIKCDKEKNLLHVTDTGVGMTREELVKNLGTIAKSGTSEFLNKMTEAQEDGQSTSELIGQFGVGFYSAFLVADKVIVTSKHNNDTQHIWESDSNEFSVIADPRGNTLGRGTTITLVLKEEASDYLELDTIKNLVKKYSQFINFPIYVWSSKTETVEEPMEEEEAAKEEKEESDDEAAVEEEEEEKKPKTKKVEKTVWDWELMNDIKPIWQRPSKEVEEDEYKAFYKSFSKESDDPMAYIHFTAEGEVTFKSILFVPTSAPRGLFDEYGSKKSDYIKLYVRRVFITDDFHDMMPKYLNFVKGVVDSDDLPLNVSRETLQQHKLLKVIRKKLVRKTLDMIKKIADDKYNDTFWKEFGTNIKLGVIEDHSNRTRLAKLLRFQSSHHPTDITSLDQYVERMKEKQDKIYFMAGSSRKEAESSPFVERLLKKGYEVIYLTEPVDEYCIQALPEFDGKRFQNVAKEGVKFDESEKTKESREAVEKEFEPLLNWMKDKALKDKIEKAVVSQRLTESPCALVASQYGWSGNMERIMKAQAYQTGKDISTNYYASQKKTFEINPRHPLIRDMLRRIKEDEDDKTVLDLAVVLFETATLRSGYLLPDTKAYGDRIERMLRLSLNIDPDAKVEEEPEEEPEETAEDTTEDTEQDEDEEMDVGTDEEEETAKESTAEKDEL
Data set [9] has as its target Heat shock protein HSP 90-alpha (Homo sapiens, UniProt P07900). Briefly: Inhibition of HSP90alpha (unknown origin) incubated for 12 to 16 hrs by FP competition assay.
Data set [10] in a line: Selectivity ratio of IC50 for inhibition of GRP94 (unknown origin) to IC50 for inhibition of HSP90alpha (unknown origin).
The nature of data set [11]: Tmax in rat plasma at 50 mg/kg, po and measured upto 24 hr by LC-MS/MS analysis. The class given is ADME, organism-based.
Data set [12] in a line: Cmax in rat plasma at 50 mg/kg, po and measured upto 24 hr by LC-MS/MS analysis. The class given is ADME, organism-based.
Data set [13] in a line: AUC in rat plasma at 50 mg/kg, po and measured upto 24 hr by LC-MS/MS analysis. Type of data set: ADME, organism-based.
Data set [14] in a line: Half life in rat plasma at 50 mg/kg, po and measured upto 24 hr by LC-MS/MS analysis. The class given is ADME, organism-based.
A short description of data set [15]: Clearance in rat plasma at 50 mg/kg, po and measured upto 24 hr by LC-MS/MS analysis. The class given is ADME, organism-based.
Data set [16] in a line: Oral bioavailability in rat at 50 mg/kg and measured upto 24 hr by LC-MS/MS analysis. Type of data set: ADME, organism-based. The settings on record: in vivo.

`CCN1CCCC1CNC(=O)[C@H]1C[C@H](c2ccccc2)CN1C(=O)c1cc(C(C)C)c(O)cc1O` (stereo partly drawn): in data set [1], the result was inactive. Besides, the inhibition result in data set [2] is “inactive”.
With `CCN1CCN(C(=O)[C@H]2C[C@H](c3ccccc3)CN2C(=O)c2cc(C(C)C)c(O)cc2O)CC1`, the outcome in data set [1] was inactive. In addition, the inhibition result in [2] was “inactive”.
As to `CC(C)c1cc(C(=O)N2C[C@@H](c3ccccc3)C[C@@H]2C(=O)NCC(=O)N2CCCCC2)c(O)cc1O`, the result in data set [1] was inactive. Also, in data set [2], the inhibition result was “inactive”.
With `CC(C)c1cc(C(=O)N2C[C@@H](c3ccccc3)C[C@@H]2C(=O)NC(C)c2ccccc2)c(O)cc1O` (stereo partly drawn), the dissociation constant Kd in data set [1] was found to be 232 nM. Further, the 50% inhibitory concentration (IC50) in data set [3] came out at 514 nM; in [4], 113 nM; in [5], 703 nM; in [6], 621 nM; in [7], 87 nM.
As for `O=C(NCc1ccccn1)[C@H]1C[C@H](c2ccccc2)CN1C(=O)c1cc(C2CC2)c(O)cc1O`, the dissociation constant (Kd) in [1] was 57 nM. Besides, the half-inhibitory concentration (IC50) in data set [3] was determined as 263 nM; in data set [4], 47 nM; in [5], 351 nM; in [6] it was 876 nM; in [7] it was 67 nM.
With `CCCCN(CCCC)C(=O)[C@H]1C[C@H](c2ccccc2)CN1C(=O)c1cc(C(C)C)c(O)cc1O`, in data set [1], the outcome was inactive. Moreover, the inhibition entry in [2] was “inactive”.
On to `CC(C)N(Cc1cccnc1)C(=O)[C@H]1CCCN1C(=O)c1cc(C2CC2)c(OP(=O)(O)O)cc1O`, for which the Kd in data set [1] amounted to 136 nM. The IC50 in data set [2] is on record as 237 nM.
As for `CC(C)c1cc(C(=O)N2C[C@@H](c3ccccc3)C[C@@H]2C(=O)NCc2ccccc2)c(O)cc1O`, the dissociation constant (Kd) in data set [1] came to 87 nM. Besides, the concentration for half-maximal inhibition (IC50) in [3] was 303 nM; in data set [4], 61 nM; in data set [5] it was 267 nM; in [6] it was 471 nM; in [7], 39 nM.
As for `CCOCCCNC(=O)[C@H]1C[C@H](c2ccccc2)CN1C(=O)c1cc(C2CC2)c(O)cc1O`, the dissociation constant Kd in data set [1] is listed as 937 nM. In addition, the IC50 in data set [3] turned out to be 1010 nM; in data set [4], 183 nM; in data set [5], 733 nM; in [6] it was 504 nM; in data set [7], 203 nM.
As for `O=C(NCc1ccccc1F)[C@H]1C[C@H](c2ccccc2)CN1C(=O)c1cc(C2CC2)c(O)cc1O`, the dissociation constant Kd in [1] was determined as 168 nM. Further, the IC50 is 291 nM in data set [3]; 86 nM in [4]; 312 nM in data set [5]; 411 nM in data set [6]; 29 nM in data set [7].
For `CC(C)CNC(=O)[C@H]1C[C@H](c2ccccc2)CN1C(=O)c1cc(C(C)C)c(O)cc1O`, the Kd in data set [1] is reported as 165 nM. Moreover, the IC50 in data set [3] came out at 435 nM; in data set [4] it was 87 nM; in data set [5], 653 nM; in data set [6], 539 nM; in [7], 63 nM.
Regarding `COCCN(CCOC)C(=O)[C@H]1C[C@H](c2ccccc2)CN1C(=O)c1cc(C2CC2)c(O)cc1O`, the dissociation constant Kd in [1] came out at 637 nM. The IC50 in data set [3] was 795 nM; in data set [4], 336 nM; in data set [5], 761 nM; in [6], 596 nM; in data set [7] it was 163 nM.
With `CC(C)NC(=O)Oc1ccc2c(c1)CN(C(=O)c1cc(C3CC3)c(O)cc1O)C2`, the dissociation constant (Kd) in data set [1] was found to be 20 nM. In data set [2], the IC50 is listed as 270 nM.
As to `CC(C)c1cc(C(=O)N2C[C@@H](c3ccccc3)C[C@@H]2C(=O)NCc2ccc3ccccc3n2)c(O)cc1O`, the Kd in [1] is given as 432 nM. Further, the half-maximal inhibitory concentration (IC50) in [3] was determined as 537 nM; in data set [4], 87 nM; in [5], 634 nM; in data set [6] it was 531 nM; in [7], 78 nM.
Consider `CC(C)c1cc(C(=O)N2C[C@@H](c3ccccc3)C[C@@H]2C(=O)NCCCN2CCOCC2)c(O)cc1O`, for which the dissociation constant Kd in [1] is 87 nM. The IC50 in data set [8] stood at 773 nM; in data set [3], 206 nM; in [4] it was 61 nM; in [5], 210 nM; in data set [6] it was 433 nM; in data set [7], 28 nM. This compound displayed a half-maximal inhibitory concentration (IC50) in [9] of 154 nM. For the same compound, the Ratio IC50 in data set [10] turned out to be 5.02. The Tmax in [11] is 0.733 h. This compound also came in with a Cmax in data set [12] of 65.7 µg/mL. Besides, in [13], the exposure (AUC) at 24 h is 186 µg·h/mL. In data set [14], this compound had a half-life of 5.8 h. Besides, in [15], the apparent clearance (CL/F) is 1.46 mL/min/kg. The compound further had a bioavailability in data set [16] of 5.5%.
With `O=C(NCc1ccc(F)cc1F)[C@H]1C[C@H](c2ccccc2)CN1C(=O)c1cc(C2CC2)c(O)cc1O`, the dissociation constant Kd in data set [1] is listed as 157 nM. Besides, the IC50 in data set [3] amounted to 272 nM; in data set [4], 37 nM; in data set [5] it was 256 nM; in data set [6], 378 nM; in data set [7], 54 nM.
For `O=C(NCc1ccccc1Cl)[C@H]1C[C@H](c2ccccc2)CN1C(=O)c1cc(C2CC2)c(O)cc1O`, the Kd in [1] was 236 nM. Further, the IC50 in data set [3] was 301 nM; in data set [4], 76 nM; in [5], 331 nM; in [6], 457 nM; in data set [7] it was 42 nM.
`CC(C)c1cc(C(=O)N2C[C@@H](c3ccccc3)C[C@@H]2C(=O)NC(C)C(C)C)c(O)cc1O` (stereo partly drawn): the Kd in [1] turned out to be 345 nM. The IC50 was 637 nM in data set [3]; 185 nM in [4]; 738 nM in [5]; 566 nM in [6]; 130 nM in data set [7].
In the case of `CC(C)N(Cc1cccnc1)C(=O)[C@H]1CCCN1C(=O)c1cc(C2CC2)c(O)cc1O`, the Kd in [1] is listed as 27 nM. In addition, the 50% inhibitory concentration (IC50) in data set [2] was found to be 310 nM.
For `CC(C)CNC(=O)[C@H]1C[C@H](c2ccccc2)CN1C(=O)c1cc(C2CC2)c(O)cc1O`, in [1], the equilibrium dissociation constant (Kd) was found to be 107 nM. Moreover, the IC50 in data set [3] came to 403 nM; in data set [4] it was 93 nM; in data set [5], 765 nM; in data set [6] it was 533 nM; in data set [7], 89 nM.
As to `CC(C)c1cc(C(=O)N2C[C@@H](c3ccccc3)C[C@@H]2C(=O)NCCc2ccccc2)c(O)cc1O`, the Kd in data set [1] is on record as 32 nM. Further, the IC50 came to 304 nM in data set [8]; 271 nM in [3]; 54 nM in [4]; 371 nM in [5]; 623 nM in data set [6]; 45 nM in data set [7]. For the same compound, in data set [9], the concentration for half-maximal inhibition (IC50) stood at 137 nM. The Ratio IC50 in data set [10] was found to be 2.22.
For `CC(C)C(C)NC(=O)[C@H]1C[C@H](c2ccccc2)CN1C(=O)c1cc(C2CC2)c(O)cc1O` (stereo partly drawn), the Kd in data set [1] is 345 nM. Moreover, the IC50 in data set [3] is 507 nM; in data set [4] it was 204 nM; in [5], 787 nM; in [6], 631 nM; in data set [7], 105 nM.
As for `CC(C)c1cc(C(=O)N2C[C@@H](c3ccccc3)C[C@@H]2C(=O)NCc2ccccc2Cl)c(O)cc1O`, the dissociation constant Kd in data set [1] was determined as 351 nM. Moreover, the concentration for half-maximal inhibition (IC50) in data set [3] was 461 nM; in data set [4], 103 nM; in data set [5], 572 nM; in [6] it was 633 nM; in [7] it was 72 nM.
As for `CCOCCCNC(=O)[C@H]1C[C@H](c2ccccc2)CN1C(=O)c1cc(C(C)C)c(O)cc1O`, in [1], the Kd was 1098 nM. For the same compound, the half-maximal inhibitory concentration (IC50) in data set [3] came out at 1130 nM; in data set [4], 231 nM; in data set [5], 933 nM; in [6], 707 nM; in [7], 203 nM.
For `O=C(NCc1ccccc1)[C@H]1C[C@H](c2ccccc2)CN1C(=O)c1cc(C2CC2)c(O)cc1O`, in data set [1], the dissociation constant Kd was 67 nM. The IC50 in data set [3] stood at 461 nM; in [4] it was 63 nM; in data set [5] it was 307 nM; in data set [6], 451 nM; in data set [7], 42 nM.
In the case of `COCCN(CCOC)C(=O)[C@H]1C[C@H](c2ccccc2)CN1C(=O)c1cc(C(C)C)c(O)cc1O`, the Kd in data set [1] is 783 nM. The concentration for half-maximal inhibition (IC50) in [3] turned out to be 731 nM; in [4] it was 375 nM; in [5], 877 nM; in data set [6] it was 703 nM; in [7] it was 301 nM.
In the case of `COc1ccc(CNC(=O)[C@H]2C[C@H](c3ccccc3)CN2C(=O)c2cc(C(C)C)c(O)cc2O)cc1`, the equilibrium dissociation constant (Kd) in data set [1] came out at 147 nM. The IC50 in data set [3] amounted to 473 nM; in data set [4] it was 107 nM; in data set [5], 732 nM; in data set [6], 541 nM; in data set [7], 103 nM.
Take `O=C(c1ccccc1O)N1Cc2ccccc2C1`: the equilibrium dissociation constant (Kd) in data set [1] is listed as 532 nM. Also, the IC50 in data set [2] stood at 6940 nM.
